Assay results taken from the NIST ThermoML archive (doi:10.1016/j.jct.2013.03.013).
“And” between values parts separate entries of the source, which are not always exact repeats. Equal entries are not always repeated.

Settings: Liquid, Vibrating wire viscometry

FCC(F)(F)F [1,1,1,2-tetrafluoroethane]
viscosity
Settings | 1000 kPa | 2000 kPa | 3000 kPa | 5000 kPa | 10000 kPa | 15000 kPa | 20000 kPa | 25000 kPa | 30000 kPa
253.14 K | 0.3564 mPa·s | – | – | 0.3729 mPa·s | 0.3937 mPa·s | 0.4141 mPa·s | 0.4329 mPa·s | 0.4553 mPa·s | 0.4776 mPa·s
253.16 K | – | – | 0.3626 mPa·s | – | 0.3914 mPa·s | – | – | – | –
273.15 K | 0.2713 mPa·s | – | 0.2791 mPa·s | 0.2873 mPa·s | 0.3052 mPa·s and 0.3031 mPa·s | 0.3211 mPa·s | 0.3387 mPa·s | 0.357 mPa·s | 0.3759 mPa·s
293.15 K | 0.2115 mPa·s | – | 0.2177 mPa·s | 0.2227 mPa·s | 0.2398 mPa·s and 0.2412 mPa·s | 0.2556 mPa·s | 0.2725 mPa·s | 0.287 mPa·s | 0.3023 mPa·s
313.14 K | – | 0.1653 mPa·s | 0.1693 mPa·s | 0.1758 mPa·s | 0.1918 mPa·s and 0.1929 mPa·s | 0.2068 mPa·s | 0.2228 mPa·s | 0.236 mPa·s | 0.2501 mPa·s
333.16 K | – | 0.1247 mPa·s | 0.1296 mPa·s | 0.1373 mPa·s | 0.1537 mPa·s and 0.1543 mPa·s | 0.1703 mPa·s | 0.1839 mPa·s | 0.1966 mPa·s | 0.2089 mPa·s
353.15 K | – | – | – | 0.1034 mPa·s | 0.1246 mPa·s | – | – | – | –
353.16 K | – | – | 0.0916 mPa·s | 0.1032 mPa·s | 0.124 mPa·s | 0.1391 mPa·s | 0.1535 mPa·s | 0.1657 mPa·s | 0.1779 mPa·s
